Test results published in patent publication US6720346B2, “Thiazole benzamide derivatives and pharmaceutical compositions for inhibiting cell proliferation” (Agouron Pharmaceuticals, Inc., priority 2001, dated 2004).
Structures can show the parent of a compound that is named as a salt.

Columns and labels:
human CDK4/cyclin D3 = target: T1, human CDK4/cyclin D3 (Homo sapiens, UniProt P11802); assay: Inhibition of CDK4/cyclin D retinoblastoma kinase activity (Ki; % inhibition); type: biochemical; details: for Ki: apparent Ki, CDK4/cyclin D3, Rb substrate
T1 construct: made in house; host or cells: insect cells co-infected with baculovirus vectors
Outline: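 Insect-cell-expressed CDK4 with truncated cyclin D3 (1-264), 5 nM, phosphorylating His-tagged Rb fragment (386-928) with 25 μM [32/33P]ATP at pH 7.4, 30 °C, 20 min (60 min for tight binders). Filter capture, phosphorimager read; % inhibition at 30 nM compound, Ki from competitive or tight-binding fits.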

HCT-116 cell line = assay: Inhibition of cell growth, MTT tetrazolium salt assay; type: cell-based; details: for IC50: Homo sapiens, HCT-116, 120 h, MTT, three to five days
Outline: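 Growth inhibition was read as MTT-formazan absorbance at 540 nm, after 4 h with 0.2 mg/mL MTT. Before that, HCT-116 cells had been exposed 3–5 days at 37 °C to compounds in 0.5% (v/v) DMSO, added 4 h after plating. 50% and 90% inhibitory concentrations were taken from semi-log concentration–inhibition plots versus vehicle controls.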

CDK2/cyclin A = target: T2, CDK2/cyclin A (Homo sapiens, UniProt P24941); assay: Inhibition of CDK2/cyclin A retinoblastoma kinase activity (Ki; % inhibition); type: biochemical; details: for Ki: apparent Ki, CDK2/cyclin A, Rb substrate
T2 construct: made in house; host or cells: CDK2: insect cells (baculovirus); cyclin A: E. coli
Outline: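 Radiometric filter assay of CDK2/proteolyzed cyclin A (baculovirus-expressed human CDK2, 10 or 19 nM) phosphorylating an Rb fragment with 25 μM [³²P/³³P]ATP in pH 7.4 HEPES, 2% DMSO, at 30 °C for 60 or 75 min under initial-rate conditions. Library compounds screened at 30 nM for % inhibition; apparent Ki from concentration series fit to competitive or tight-binding inhibition equations.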

[1] = HCT-116 cells, 0.25 μM compound

T1 sequence (P11802 whole entry): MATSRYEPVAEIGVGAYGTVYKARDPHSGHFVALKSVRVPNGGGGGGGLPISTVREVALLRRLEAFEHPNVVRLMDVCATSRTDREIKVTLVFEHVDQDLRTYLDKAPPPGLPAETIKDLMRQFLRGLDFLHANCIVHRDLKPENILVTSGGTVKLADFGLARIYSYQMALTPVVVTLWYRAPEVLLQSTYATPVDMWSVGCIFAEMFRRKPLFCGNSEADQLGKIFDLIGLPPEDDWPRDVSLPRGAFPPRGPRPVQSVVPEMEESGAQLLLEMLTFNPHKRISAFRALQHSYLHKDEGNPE
T1 sequence (P30281 1-264 partner limits assumed): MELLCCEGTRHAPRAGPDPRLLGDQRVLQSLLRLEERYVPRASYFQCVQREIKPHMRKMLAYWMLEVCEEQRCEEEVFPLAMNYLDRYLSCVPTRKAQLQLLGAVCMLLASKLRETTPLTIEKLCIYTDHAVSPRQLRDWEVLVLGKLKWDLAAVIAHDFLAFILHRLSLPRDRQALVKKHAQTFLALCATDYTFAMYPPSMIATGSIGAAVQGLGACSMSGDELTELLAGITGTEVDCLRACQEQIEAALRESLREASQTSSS

CDK4 % Inhibition at 0.03 μM (human CDK4/cyclin D3; 0.03 μM compound)	CDK2 % Inhibition at 0.03 μM (CDK2/cyclin A; 0.03 μM compound)	CDK4 % Inhibition at 0.03 μM (human CDK4/cyclin D3; at 0.03 μM)	CDK2 % Inhibition at 0.03 μM (CDK2/cyclin A; at 0.03 μM)	Structure (SMILES)	HCT-116 % Inhibition at 0.1 μM (HCT-116 cell line; HCT-116 cells, 0.1 μM compound)	HCT-116 % Inhibition at 0.25 μM (HCT-116 cell line; [1])	HCT-116 % Inhibition at 0.25 μM (HCT-116 cell line; HCT-116, at 0.25 μM)	also measured
–	–	29%	22%	Nc1nc(Nc2ccc(C(=O)NCc3ccccn3)cc2)sc1C(=O)c1c(F)cccc1F [Example G180]	–	–	68%	HCT-116 % Inhibition at 0.1 μM (HCT-116 cell line; HCT-116, at 0.1 μM): 25%
–	–	13%	−40%	Cc1nccc(-c2cccc(NC(=O)c3ccc(Nc4nc(N)c(C(=O)c5c(F)cccc5F)s4)cc3)c2)n1 [Example G87]	–	–	78%	HCT-116 % Inhibition at 0.1 μM (HCT-116 cell line; HCT-116, at 0.1 μM): 54%
–	–	−5%	−1%	Cc1ccc(NC(=O)c2ccc(Nc3nc(N)c(C(=O)c4c(F)cccc4F)s3)cc2)cc1Cl [Example G8]	–	–	50%	–
–	–	3%	25%	COc1ccc(NC(=O)c2ccc(Nc3nc(N)c(C(=O)c4c(F)cccc4F)s3)cc2)cc1Cl [Example G59]	–	–	53%	–
8%	−3%	–	–	Cc1cc(C)cc(NC(=O)c2ccc(Nc3nc(N)c(C(=O)c4c(F)cccc4F)s3)cc2)c1 [Example G297]	0%	45%	–	–
20%	8%	–	–	Nc1nc(Nc2ccc(C(=O)Nc3ccc(OC(F)(F)F)cc3)cc2)sc1C(=O)c1c(F)cccc1F [Example G230]	19%	52%	–	–
27%	31%	–	–	Cc1ccc(CNC(=O)c2ccc(Nc3nc(N)c(C(=O)c4c(F)cccc4F)s3)cc2)cc1C [Example G338]	18%	54%	–	–
–	–	−1%	9%	CC(C)c1ccccc1NC(=O)c1ccc(Nc2nc(N)c(C(=O)c3c(F)cccc3F)s2)cc1 [Example G51]	–	–	89%	–
–	–	4%	10%	CC(O)c1ccc(NC(=O)c2ccc(Nc3nc(N)c(C(=O)c4c(F)cccc4F)s3)cc2)cc1 (stereo not drawn) [Example G94]	–	–	80%	HCT-116 % Inhibition at 0.1 μM (HCT-116 cell line; HCT-116, at 0.1 μM): 38%
–	–	18%	12%	N#Cc1cccc(NC(=O)c2ccc(Nc3nc(N)c(C(=O)c4c(F)cccc4F)s3)cc2)c1 [Example G60]	–	–	66%	–
−12%	−30%	–	–	Cc1ccc(NC(=O)c2ccc(Nc3nc(N)c(C(=O)c4c(F)cccc4F)s3)cc2)c(F)c1 [Example G284]	4%	69%	–	–

Further lines, the compound ahead of its results:

Structure (SMILES)	CDK4 % Inhibition at 0.03 μM (human CDK4/cyclin D3; 0.03 μM compound)	CDK2 % Inhibition at 0.03 μM (CDK2/cyclin A; 0.03 μM compound)	CDK4 % Inhibition at 0.03 μM (human CDK4/cyclin D3; at 0.03 μM)	CDK2 % Inhibition at 0.03 μM (CDK2/cyclin A; at 0.03 μM)	HCT-116 % Inhibition at 0.1 μM (HCT-116 cell line; HCT-116 cells, 0.1 μM compound)	HCT-116 % Inhibition at 0.25 μM (HCT-116 cell line; [1])	HCT-116 % Inhibition at 0.25 μM (HCT-116 cell line; HCT-116, at 0.25 μM)	also measured
COc1ccc(CCNC(=O)c2ccc(Nc3nc(N)c(C(=O)c4c(F)cccc4F)s3)cc2)cc1 [Example G238]	26%	18%	–	–	22%	58%	–	–
COc1ccc(NC(=O)c2ccc(Nc3nc(N)c(C(=O)c4c(F)cccc4F)s3)cc2)c(OC)c1 [Example G45]	–	–	16%	16%	–	–	89%	–
CCN(C(=O)c1ccc(Nc2nc(N)c(C(=O)c3c(F)cccc3F)s2)cc1)C1CCCCC1 [Example G312]	5%	−10%	–	–	8%	58%	–	–
COc1ccc(CCN(C)C(=O)c2ccc(Nc3nc(N)c(C(=O)c4c(F)cccc4F)s3)cc2)cc1OC [Example G361]	−1%	−3%	–	–	26%	48%	–	–
CN(C)CCNC(=O)c1cccc(Nc2nc(N)c(C(=O)c3c(F)cccc3F)s2)c1 [F]	–	–	–	–	–	–	–	Ki (human CDK4/cyclin D3): 140 nM; IC50 (HCT-116 cell line): 1800 nM; Ki (CDK2/cyclin A): 270 nM
Nc1nc(Nc2ccc(C(=O)NCc3ccccc3Cl)cc2)sc1C(=O)c1c(F)cccc1F [Example G228]	36%	38%	–	–	24%	75%	–	–
Nc1nc(Nc2ccc(C(=O)NC3CCc4ccccc43)cc2)sc1C(=O)c1c(F)cccc1F (stereo not drawn) [Example G95]	–	–	18%	12%	–	–	63%	HCT-116 % Inhibition at 0.1 μM (HCT-116 cell line; HCT-116, at 0.1 μM): 32%
COc1cccc(CCNC(=O)c2ccc(Nc3nc(N)c(C(=O)c4c(F)cccc4F)s3)cc2)c1OC [Example G203]	20%	7%	–	–	18%	53%	–	–
Nc1nc(Nc2ccc(C(=O)N3CC=CC3)cc2)sc1C(=O)c1c(F)cccc1F [Example G40]	–	–	18%	4%	–	–	61%	–
Nc1nc(Nc2ccc(C(=O)N3CCCC(O)C3)cc2)sc1C(=O)c1c(F)cccc1F (stereo not drawn) [Example G49]	–	–	4%	7%	–	–	57%	–
Nc1nc(Nc2ccc(C(=O)N3CCC(O)CC3)cc2)sc1C(=O)c1c(F)cccc1F [Example G56]	–	–	10%	24%	–	–	59%	–
CCN1CCC[C@H]1CNC(=O)c1ccc(Nc2nc(N)c(C(=O)c3c(F)cccc3F)s2)cc1 [Example A38, 4-[4-Amino-5-(2,6-difluoro-benzoyl)-thiazol-2-ylamino]-N-(1-ethyl-pyrrolidin-2S-yl-methyl)-benzamide]	–	–	–	–	–	–	–	Ki (human CDK4/cyclin D3): 24 nM; IC50 (HCT-116 cell line): 100 nM; Ki (CDK2/cyclin A): 140 nM
CSCCC(O)NC(=O)c1ccc(Nc2nc(N)c(C(=O)c3c(F)cccc3F)s2)cc1 (stereo not drawn) [Example G108]	–	–	12%	−5%	–	–	60%	HCT-116 % Inhibition at 0.1 μM (HCT-116 cell line; HCT-116, at 0.1 μM): 0%
Nc1nc(Nc2ccc(C(=O)NC3CCOC3=O)cc2)sc1C(=O)c1c(F)cccc1F (stereo not drawn) [Example G129]	–	–	19%	11%	–	–	51%	HCT-116 % Inhibition at 0.1 μM (HCT-116 cell line; HCT-116, at 0.1 μM): 0%
Nc1nc(Nc2ccc(C(=O)NCCO)cc2)sc1C(=O)c1c(Cl)cccc1Cl [Example B2, 4-[4-Amino-5-(2,6-dichloro-benzoyl)-thiazol-2-ylamino]-N-(2-hydroxy-ethyl)-benzamide]	–	–	–	–	–	–	–	Ki (human CDK4/cyclin D3): 18 nM; IC50 (HCT-116 cell line): 3600 nM; Ki (CDK2/cyclin A): 96 nM
Nc1nc(Nc2ccc(C(=O)NCc3cc(F)ccc3F)cc2)sc1C(=O)c1c(F)cccc1F [Example G309]	30%	17%	–	–	5%	65%	–	–
CN(C)CC(C)(C)NC(=O)c1ccc(Nc2nc(N)c(C(=O)c3c(F)cccc3F)s2)cc1 [Example A61, 4-[4-Amino-5-(2,6-difluoro-benzoyl)-thiazol-2-ylamino]-N-(2-dimethylamino-1,1-dimethyl-ethyl)-benzamide Dihydrochloride]	–	–	–	–	–	–	–	Ki (human CDK4/cyclin D3): 232 nM; IC50 (HCT-116 cell line): 220 nM; Ki (CDK2/cyclin A): 37.5 nM
Nc1nc(Nc2ccc(C(=O)NCc3ccccc3C(F)(F)F)cc2)sc1C(=O)c1c(F)cccc1F [Example G269]	2%	6%	–	–	19%	65%	–	–
CN(Cc1cccnc1)C(=O)c1ccc(Nc2nc(N)c(C(=O)c3c(F)cccc3F)s2)cc1 [Example G20]	–	–	9%	10%	–	–	50%	–
C=CCN(CC=C)C(=O)c1ccc(Nc2nc(N)c(C(=O)c3c(F)cccc3F)s2)cc1 [Example G272]	0%	−20%	–	–	10%	47%	–	–
Nc1nc(Nc2ccc(C(=O)N[C@H](CO)Cc3ccccc3)cc2)sc1C(=O)c1c(F)cccc1F [Example G318]	1%	−14%	–	–	16%	48%	–	–
Nc1nc(Nc2ccc(C(=O)NCCc3ccccn3)cc2)sc1C(=O)c1c(F)cccc1F [Example G140]	–	–	19%	15%	–	–	54%	HCT-116 % Inhibition at 0.1 μM (HCT-116 cell line; HCT-116, at 0.1 μM): 0%
CSCCC(CO)NC(=O)c1ccc(Nc2nc(N)c(C(=O)c3c(F)cccc3F)s2)cc1 (stereo not drawn) [Example G386]	12%	19%	–	–	28%	51%	–	–
COC(=O)CN(C)C(=O)c1ccc(Nc2nc(N)c(C(=O)c3c(F)cccc3F)s2)cc1 [Example G50]	–	–	10%	9%	–	–	61%	–
